US4855304A, “Dinucleoside pyrophosphates and pyrophosphate homologs as plant antivirals” (Repligen Corporation, priority 1985, dated 1989)
Where two headings read alike, the source gives them in different places.

Columns and labels:
[1] = system: TMV (tobacco mosaic virus) replication in TMV-infected tobacco leaf discs; test: Antiviral activity in TMV-infected leaf discs (TMV content by ELISA); type: cell-based, tobacco mosaic virus; leaf discs of N. tabacum var. samsun; design: key to TMV content: N.I.: no inhibition; settings: for ng TMV/ml: control 550 (Table 4)
Method: Assays for antiviral activity in TMV-infected leaf discs were done using leaves of N. tabacum var. samsun in which TMV is systemically spread. Leaves were mechanically inoculated with purified TMV (5 μg/ml in 0.01M sodium phosphate buffer, pH 7.6, containing 0.1 g/ml of carborundum as an abrasive). Immediately after infection, leaf discs (6.5 mm diameter) were punched out of the inoculated leaves and placed in a beaker containing 0.01M sodium phosphate, pH 7.6.
selected at random from this common pool and placed onto separate petri dishes, each containing 18 ml of 10 mM 4-(2-hydroxyethyl)-1-piperazine ethanesulfonic acid (HEPES)-KOH, pH 7.05, 188 mg/L Na2 HPO4 --7H2 O. […] At the end of the 1 hr incubation, the buffer containing the antiviral dinucleotide was replaced by a buffer lacking the antiviral dinucleotide for another hr. The discs were then washed with 0.01M sodium phosphate, pH 7.6, and were allowed to incubate for an additional 72 hr in phosphate buffer (Devash, Y., Biggs, S. and Sela, I. [1982] Science 216: 1415-1416; Devash, Y. et al. [1984] J. Biol. Chem. 259: 3482-3486). The discs were homogenized in 0.01M sodiuM phosphate buffer, pH 7.6, and the TMV content was determined by enzyme-linked immunosorbent assay (ELISA) as described below.
(§1) The TMV content of the homogenates was determined by ELISA essentially by the method of Clark and Adams ([1977] J. Gen. Virol. 34: 475-483) but with the following order of layers on the microtiter plates.
(§2) (a) the γ-globulin fraction of a serum obtained from a chicken immunized against TMV was absorbed directly to the plate.
(§3) (b) The next layer was the tested sample (at various dilutions) or a series of purified TMV suspensions at known concentrations (calibration curve).
(§4) (c) The third layer was the γ-globulin from the serum of a TMV-immunized rabbit.
(§5) (d) The final layer was goat antibody to rabbit immunoglobulin G conjugated with alkaline phosphatase (Sigma). The release of phosphate from p-nitrophenyl phosphate due to the antibody-conjugated alkaline phosphatase was monitored spectrophotometrically with a Microplate reader (Dynatech Diagnostics, Inc. South Windham, ME) and was proportional to TMV concentration in a log linear manner for about two logs (<2 ng to>200 ng). (Devash, Y., Biggs, S. and Sela, I. [1982] Science 216: 1415-1416)
The γ-globulin fraction of serum obtained from chickens and rabbits immunized against TMV were generous gifts from Professor Ilan Sela, The Hebrew University of Jerusalem, Agriculture Faculty, Rehobot, Israel.

[2] = system: TMV (tobacco mosaic virus) replication in intact N. glutinosa plants; test: Antiviral activity in N. glutinosa intact plants, infectivity test (local lesions); type: in vivo, tobacco mosaic virus; Nicotiana glutinosa; settings: for induced resistance to TMV infection in the non-treated half-leaf: 1 μM (10^-6 M)
Method: (§6) Nicotiana glutinosa and N. tabacum var. samsum plants were grown in potting medium in greenhouse conditions (25±3° C., and constant illumination). The plants were fertilized with a commercial fertilizer every two weeks. Plants were used at 5-8 leaf stage (Devash, Y., Biggs, S. and Sela, I. [1982] Science 216: 1415-1416; Devash, Y. et al. [1984] Jour. Biol. Chem. 259: 3482-3486).
The ability of the antiviral dinucleotides to inhibit TMV replication in intact N. glutinosa plants (containing N-gene for TMV localization) was determined by infectivity tests. Solutions containing 5 μg/ml TMV, 0.1 μg/ml carborundum, and antiviral dinucleotide were applied to 5 half-leaves of N. glutinosa. The opposite half-leaves served as controls and were inoculated with infecting solution containing TMV and carborundum but no dinucleotides. The infection was allowed to proceed 48 hr. Inhibition of TMV replication was calculated as the percent of local lesions produced in antiviral compound treated half-leaves, as compared to control half-leaves.

[3] = system: TMV (tobacco mosaic virus) in N. tabacum plants; test: Root application to N. tabacum intact plants (TMV content by ELISA); type: in vivo, tobacco mosaic virus; Nicotiana tabacum; settings: for suppression (inhibition) of the virus: 1 μM (10^-6 M), exposure of plant roots; for % Protection / ng TMV/g of leaves: 1 μM, roots, 2 hr; for ng TMV/g of leaves: control 200
Method: as §6
Nicotiana tabacum plants were used as a source of plant tissue in which TMV is spread systemically.
(a) Root application: N. tabacum plants were removed from their pots and transferred into 50 ml tubes containing 10 ml of 10 mM HEPES-KOH, pH 7.6, and the antiviral dinucleotides. Two hr later, plants were transferred into 50 ml tubes lacking the antiviral compound and were inoculated by TMV as described above. Twenty-four hr later leaves were homogenized in 0.01M sodium phosphate buffer, pH 7.6, (1 g leaves/3 ml buffer) and TMV content was determined by ELISA.
as §1, §2, §3, §4, §5
In order to establish the relationship of the induced resistance to the N-gene for viral localization and to the transmission ability of the compounds, a comparison between leaf application and root application of antiviral dinucleotides to N. tabacum plants was made. N. tabacum plants were removed into vials containing 10 ml of 10 mM HEPES-KOH, pH 7.6, and 1 μM of antiviral dinucleotide. The plant roots were allowed to remain in the solutions for 2 hr and then were transferred to vials containing the buffer without the antiviral compounds.
The plants then were infected with TMV as above. (See section 4. Antiviral activity on N. tabacum intact plants, paragraph [a].) Another group of N. tabacum plants was tested as described in the above-noted section, paragraph (b).

[4] = 10 nM (10^-8 M), non-treated half-leaf
[5] = 10 nM (10^-8 M), treated half-leaf
[6] = 100 nM (10^-7 M), non-treated half-leaf
[7] = 100 nM (10^-7 M), treated half-leaf
[8] = 1000 nM (10^-6 M), non-treated half-leaf
[9] = 1000 nM (10^-6 M), treated half-leaf

Compound: Nc1ncnc2c1ncn2[C@@H]1O[C@H](COP(=O)(O)OP(=O)(O)O[C@H]2[C@@H](O)[C@H](n3cnc4c(N)ncnc43)O[C@@H]2CO)[C@@H](O)[C@H]1O [A3'pp5'A, adenosine 3',5'-diphospho-adenosine]
- ng TMV/ml ([1]; 2 × 10^-9 M): 550 ng TMV/ml
- ng TMV/ml ([1]; 20 × 10^-9 M): 200 ng TMV/ml
- ng TMV/ml ([1]; 200 × 10^-9 M): 150 ng TMV/ml
- effectiveness in inhibiting TMV replication compared with 2',5'-adenylate trimer core ([1]; TMV-infected discs, in words): confer similar antiviral state
- inhibition at 0.002 µM ([1]; Tobacco mosaic virus, 2 × 10^-9 M (Table 4), read-out: % Inhibition as Related to Control): 0%
- inhibition at 0.02 µM ([1]; Tobacco mosaic virus, 20 × 10^-9 M (Table 4), read-out: % Inhibition as Related to Control): 64%
- inhibition at 0.2 µM ([1]; Tobacco mosaic virus, 200 × 10^-9 M (Table 4), read-out: % Inhibition as Related to Control): 73%
- induced resistance to TMV infection in the non-treated half-leaf ([2]; in words): resulted in an induced resistance to TMV infection even in the non-treated half-leaf
- percent protection as compared to control TMV infected leaves ([2]; 10^-6 M, non-treated half leaf (Table 5)): 93%
- percent protection as compared to control TMV infected leaves ([2]; 10^-6 M, treated half leaf (Table 5)): 100%
- inhibition of TMV replication (inhibition of formation of local lesions) ([2]; N. glutinosa intact plants, in words): inhibited the TMV replication

Compound: Nc1ncnc2c1ncn2[C@@H]1O[C@H](COP(=O)(O)OP(=O)(O)OC[C@H]2O[C@@H](n3cnc4c(N)ncnc43)[C@H](O)[C@@H]2O)[C@@H](O)[C@H]1O [A5'pp5'A, diadenosine 5',5'"-p^1,p^2 -diphosphate]
- suppression (inhibition) of the virus [3]: 98-100%
- % Protection [3]: 100%
- ng TMV/g of leaves [3]: 0 ng TMV/g of leaves
- TMV content ([1]; 100 nM, treatment with [Ca^+2] coprecipitation, control 75): 48 ngTMV/ml
- TMV content ([1]; 100 nM, treatment without [Ca^+2] coprecipitation, control 56): N.I.
- TMV content ([1]; 200 nM, treatment with [Ca^+2] coprecipitation, control 75): 44 ngTMV/ml
- TMV content ([1]; 200 nM, treatment without [Ca^+2] coprecipitation, control 56): N.I.
- inhibition at 0.1 µM ([1]; Tobacco mosaic virus, 100 nM, treatment with [Ca^+2] coprecipitation, read-out: percent inhibition as related to control): 36%
- inhibition at 0.1 µM ([1]; Tobacco mosaic virus, 100 nM, treatment without [Ca^+2] coprecipitation, read-out: percent inhibition as related to control): 0%
- inhibition at 0.2 µM ([1]; Tobacco mosaic virus, 200 nM, treatment with [Ca^+2] coprecipitation, read-out: percent inhibition as related to control): 41%
- inhibition at 0.2 µM ([1]; Tobacco mosaic virus, 200 nM, treatment without [Ca^+2] coprecipitation, read-out: percent inhibition as related to control): 0%
- percent protection as compared to control TMV infected leaves [2, 4]: 68.4%
- percent protection as compared to control TMV infected leaves [2, 5]: 96.0%
- percent protection as compared to control TMV infected leaves [2, 6]: 54.6%
- percent protection as compared to control TMV infected leaves [2, 7]: 95.4%
- induced resistance to TMV infection in the non-treated half-leaf ([2]; in words): resulted in an induced resistance to TMV infection even in the non-treated half-leaf
- percent protection as compared to control TMV infected leaves [2, 8]: 100%
- percent protection as compared to control TMV infected leaves [2, 9]: 100%

Compound: Nc1ccn([C@@H]2O[C@H](COP(=O)(O)OP(=O)(O)OC[C@H]3O[C@@H](n4cnc5c(N)ncnc54)[C@H](O)[C@@H]3O)[C@@H](O)[C@H]2O)c(=O)n1 [A5'pp5'C, adenosine 5',5'"-p^1,p^2 -diphospho-cytidine]
- percent protection as compared to control TMV infected leaves [2, 4]: 36.1%
- percent protection as compared to control TMV infected leaves [2, 5]: 55.0%
- percent protection as compared to control TMV infected leaves [2, 6]: 35.5%
- percent protection as compared to control TMV infected leaves [2, 7]: 51.9%
- induced resistance to TMV infection in the non-treated half-leaf ([2]; in words): resulted in an induced resistance to TMV infection even in the non-treated half-leaf
- percent protection as compared to control TMV infected leaves [2, 8]: 32.9%
- percent protection as compared to control TMV infected leaves [2, 9]: 63.5%

Compound: Nc1nc2c(ncn2[C@@H]2O[C@H](COP(=O)(O)OP(=O)(O)OC[C@H]3O[C@@H](n4cnc5c(N)ncnc54)[C@H](O)[C@@H]3O)[C@@H](O)[C@H]2O)c(=O)[nH]1 [A5'pp5'G, adenosine 5',5'"-p^1,p^2 -diphospho-guanosine]
- suppression (inhibition) of the virus [3]: 98-100%
- % Protection [3]: 98%
- ng TMV/g of leaves [3]: 4 ng TMV/g of leaves
- percent protection as compared to control TMV infected leaves [2, 4]: 59.8%
- percent protection as compared to control TMV infected leaves [2, 5]: 84.8%
- percent protection as compared to control TMV infected leaves [2, 6]: 44.7%
- percent protection as compared to control TMV infected leaves [2, 7]: 89.5%
- induced resistance to TMV infection in the non-treated half-leaf ([2]; in words): resulted in an induced resistance to TMV infection even in the non-treated half-leaf
- percent protection as compared to control TMV infected leaves [2, 8]: 100%
- percent protection as compared to control TMV infected leaves [2, 9]: 100%

Compound: Nc1ncnc2c1ncn2[C@@H]1O[C@H](COP(=O)(O)OP(=O)(O)OC[C@H]2O[C@@H](n3ccc(=O)[nH]c3=O)[C@H](O)[C@@H]2O)[C@@H](O)[C@H]1O [A5'pp5'U, adenosine 5',5'"-p^1,p^2 -diphospho-uridine]
- percent protection as compared to control TMV infected leaves [2, 4]: 5.2%
- percent protection as compared to control TMV infected leaves [2, 5]: 38.1%
- percent protection as compared to control TMV infected leaves [2, 6]: 0%
- percent protection as compared to control TMV infected leaves [2, 7]: 0%
- percent protection as compared to control TMV infected leaves [2, 8]: 21.0%
- percent protection as compared to control TMV infected leaves [2, 9]: 80.2%

Compound: Nc1ncnc2c1ncn2[C@@H]1O[C@H](COP(=O)(O)OP(=O)(O)O[C@@H]2[C@H](O)[C@@H](CO)O[C@H]2n2cnc3c(N)ncnc32)[C@@H](O)[C@H]1O [Adenosine 2',5'-p^1,p^2-diadenosine, adenosine 2',5'-diphospho-adenosine]
- inhibition of TMV replication ([1]; TMV-infected discs, in words): effective inhibitor of TMV replication
- inhibition at 1 µM ([1]; Tobacco mosaic virus, 10^-6 M (Table 6), read-out: % Inhibition as related to control): 42%
- inhibition at 0.1 µM ([1]; Tobacco mosaic virus, 10^-7 M (Table 6), read-out: % Inhibition as related to control): 37%
- inhibition at 0.01 µM ([1]; Tobacco mosaic virus, 10^-8 M (Table 6), read-out: % Inhibition as related to control): 26.4%
- inhibition at 0.001 µM ([1]; Tobacco mosaic virus, 10^-9 M (Table 6), read-out: % Inhibition as related to control): 21%
- inhibition at 0.0001 µM ([1]; Tobacco mosaic virus, 10^-10 M (Table 6), read-out: % Inhibition as related to control): 0%

Compound: Nc1ncnc2c1ncn2[C@@H]1O[C@H](COP(=O)(O)OP(=O)(O)OC[C@H]2O[C@@H](n3cnc4c(N)ncnc43)[C@@H]3OP(=O)(O)O[C@@H]32)[C@H]2OP(=O)(O)O[C@H]21 [P<A5'PP5'A>P, 2',3'-cyclic phospho-diadenosine 5',5'"-p^1,p^2-diphosphate]
- antiviral activity/potency on structural modification ([1]; in words, compared to dinucleotides with 2 and 3 internal phosphates): did not decrease their antiviral potency
